Entries after “also recorded” stand apart in the source; their conditions may differ. Square brackets hold non-standard residues; d marks the D form. Ends that are not written are not given here. pGlu = O=C1CC[C@@H](C(=O)O)N1
Legend:
[1] = system: panelists; assay: Descriptive profile of umami enhancer UE-30 in solution, in-mouth (Example 5); type: in vivo, human; conditions: for Astringent, in-mouth perception / Bitter, in-mouth perception / Metallic, in-mouth perception / Mineral/Flinty, in-mouth perception / Numbing, in-mouth perception / Salt, in-mouth perception / Sour, in-mouth perception / Sweet, in-mouth perception / Umami FF, in-mouth perception / Umami/Brothy, in-mouth perception: mean score, 15-point scale
Protocol: Descriptive attributes (e.g., taste, flavor and chemical feeling factors) of four use levels of a pGlu-Val-Cys (UE-30) flavor composition peptide was determined. The four use levels were as follows: 1.0 ppb, 10.0 ppb, 100.0 ppb and 1000.0 ppb.
Data was collected for the attributes of the product in-mouth for the use levels according to the following protocol: • The samples were analyzed for flavor and aftertaste by six-nine members of a panel, trained and experienced in appearance, flavor and texture evaluation using the Spectrum™ method. Samples were evaluated across multiple panel sessions. • The strength of each attribute was rated on a 15-point scale, where 0=none and 15=very strong. • This scale incorporates the ability to use tenths of a point and therefore has the potential of 150 scale differentiations. • The scale may be expanded beyond 15 points to include extreme ratings if necessary. Attribute Perception Protocol • The panelists evaluated each sample using the following procedure • Descriptive Profiles (Flavor and Chemical Feeling Factors) of 4 levels of UE-30 (umami enhancer) • Individual data (1 replication) was collected for the flavor and chemical feeling factors of the product in-mouth Sample Preparation
The 01, 10, 100 and 1000 ppb test samples of the flavor composition peptide was prepared in water as described in the table 19.
The panelists evaluated each sample for the attributes described in table 20.

[2] = Salty taste of NaCl-reduced potato chips with added peptide; type: in vivo; conditions: 50% salt reduction, 1150 ppb peptide
Protocol: All Ingredients were added into a plastic container and mixed gently.
Two batches of potato chips were made: a control with 100% NaCl (0.5 g) and a sample with 50% NaCl (0.25 g) and 1150 ppb pGlu-Val-Leu.
A 1000 ppm stock of pGlu-Val-Leu in salt was made to be added to the potato chips.

[3] = Salty taste of peanut butter with added peptide; type: in vivo; conditions: no salt reduction, 267 ppb peptide
Protocol: All Ingredients were added into the mixing bowl and milled on the Retsch mill (model RM200) for a total of 30 minutes for two 15 minute intervals. After 15 minutes, the walls of the bowl were scraped with a spatula and then, milling was resumed.
Three batches of peanut butter were made: a control with 100% NaCl (0.05 g), a sample with 100% NaCl (0.05 g) and 267 ppb pGlu-Val-Leu, and a sample with 50% NaCl reduction (0.025 g) and with 267 ppb pGlu-Val-Leu.
A 1000 ppm stock of pGlu-Val-Leu in salt was made to be added to the peanut butter.

[4] = Salty taste of NaCl-reduced roasted chicken flavored rice with added peptide; type: in vivo; conditions: 50% NaCl reduction, 50 ppb peptide
Protocol: All Ingredients, except the rice, were placed into a container and mixed. The mixture was heated in a microwave for a total of one minute for two 30 second intervals. The rice and mixture were then mixed in a bowl. The cooking bowl was placed into a rice cooker and the cook cycle was started. After 36 minutes the rice was mixed and then allowed to cook for the remaining time for a total time of 49 minutes.
Three batches of rice were made: a control with 100% NaCl (4.7696 g), a sample with 50% NaCl (2.38 g), and the last sample had 50% NaCl (2.38 g) with 50 ppb of pGlu-Val-Leu.
Three batches of rice were made: a control with 100% NaCl, a sample with 50% NaCl, and a sample that had 50% NaCl (2.38 g) with 50 ppb of pGlu-Val-Val.
Two batches of rice were made: a control with 50% NaCl (2.38 g), and the other sample had 50% NaCl (2.38 g) with 50 ppb of pGlu-Val and 50 ppb of pGlu-Pro-Glu. Two stock solutions were made to be added to the rice: a 200 ppm stock solution of pGlu-Val in water and a 200 ppm stock solution of pGlu-Pro-Glu in water, as shown in table 44.
Three batches of rice were made: a control with 100% NaCl (4.7696 g), a sample with 40% NaCl (1.9 g), and the last sample had 40% NaCl (1.9 g) with 1 ppb of pGlu-Val-Leu and 1 ppb of pGlu-Val-Cys. […]

## [pGlu]-Val-Cys [UE-30]
[1]; 1.0 ppb in solution
  Astringent, in-mouth perception: 0.0
  Bitter, in-mouth perception: 0.0
  Metallic, in-mouth perception: 0.0
  Mineral/Flinty, in-mouth perception: 0.5
  Numbing, in-mouth perception: 0.0
  Salt, in-mouth perception: 1.9
  Sour, in-mouth perception: 0.0
  Sweet, in-mouth perception: 0.0
  Umami FF, in-mouth perception: 0.5
  Umami/Brothy, in-mouth perception: 0.7
[1]; 1.0 to 1000.0 ppb, in-mouth
  Level of the remaining aromatics, basic tastes and chemical feeling factors with increasing concentration: does not increase
  Salt perception level as the concentration increases: increases slightly; also recorded: Shows increases
  Umami feeling factor as the concentration increases: increases slightly; also recorded: Shows increases
  Umami/brothy aromatic as the concentration increases: increases slightly; also recorded: Shows increases
[1]; 10.0 ppb in solution
  Astringent, in-mouth perception: 0.0
  Bitter, in-mouth perception: 0.0
  Metallic, in-mouth perception: 0.0
  Mineral/Flinty, in-mouth perception: 0.7
  Numbing, in-mouth perception: 0.0
  Salt, in-mouth perception: 2.1
  Sour, in-mouth perception: 0.0
  Sweet, in-mouth perception: 0.0
  Umami FF, in-mouth perception: 1.9
  Umami/Brothy, in-mouth perception: 1.0
[1]; 100.0 ppb in solution
  Astringent, in-mouth perception: 0.0
  Bitter, in-mouth perception: 0.0
  Metallic, in-mouth perception: 0.0
  Mineral/Flinty, in-mouth perception: 0.7
  Numbing, in-mouth perception: 0.0
  Salt, in-mouth perception: 2.6
  Sour, in-mouth perception: 0.0
  Sweet, in-mouth perception: 0.0
  Umami FF, in-mouth perception: 2.7
  Umami/Brothy, in-mouth perception: 1.8
[1]; 1000.0 ppb in solution
  Astringent, in-mouth perception: 0.0
  Bitter, in-mouth perception: 0.0
  Metallic, in-mouth perception: 0.0
  Mineral/Flinty, in-mouth perception: 0.6
  Numbing, in-mouth perception: 0.0
  Salt, in-mouth perception: 3.4
  Sour, in-mouth perception: 0.0
  Sweet, in-mouth perception: 0.0
  Umami FF, in-mouth perception: 3.5
  Umami/Brothy, in-mouth perception: 2.5

## [pGlu]-Val-Leu [SE-13]
[2]
  Salty taste compared to control with 100% NaCl: saltier than the control
[3]
  Salty taste compared to control with 100% NaCl: saltier than the control

## [pGlu]-Val-Val [SE-17]
[4]
  Aftertaste: had a salty aftertaste
